Source: PMC6950969 (Saudi Pharmaceutical Journal : SPJ, 2019)
In brackets after ≈: the same amount, converted by molar mass. Where a name gives a salt, the structure may show the parent alone.

Legend:
[1] = Anti-lipid peroxidation activity
[2] = test system: Acetylcholinesterase (AChE); assay: AChE inhibition, Ellman's method; assay type: biochemical; settings: 20 µg/mL
[3] = test system: butyrylcholinesterase (BChE); assay: BChE inhibition, Ellman's method; assay type: biochemical; settings: for Percentile of inhibition ± S.E.M against BChE: 20 µg/mL
hCA I = hCA I (Homo sapiens, UniProt P00915); assay: hCA I inhibition, esterase activity; assay type: biochemical
hCA II = hCA II (Homo sapiens, UniProt P00918); assay: hCA II inhibition, esterase activity; assay type: biochemical
[4] = test system: butyrylcholinesterase (BChE); settings: coumarins from Angelica officinalis L. fruits; ref Ferreira et al., 2006; cited from earlier work
Caco-2 cells = settings: purified from A. dahurica; ref Liu et al., 2016; cited from earlier work
pPI3K and pAkt = settings: cells Caco-2; ref Liu et al., 2016; cited from earlier work

hCA I, sequence (P00915 whole entry): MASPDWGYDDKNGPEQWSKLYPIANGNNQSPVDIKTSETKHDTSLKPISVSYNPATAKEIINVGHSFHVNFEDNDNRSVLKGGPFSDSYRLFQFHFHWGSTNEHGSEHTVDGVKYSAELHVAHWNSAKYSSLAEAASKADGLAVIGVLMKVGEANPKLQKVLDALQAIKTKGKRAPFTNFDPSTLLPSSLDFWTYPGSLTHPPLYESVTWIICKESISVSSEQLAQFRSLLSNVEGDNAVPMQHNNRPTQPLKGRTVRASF

Compound	IC50 values ± SD, anti-lipid peroxidation (TBA test) [1] [µg/mL]	Percentile of inhibition ± S.E.M against BChE [3] [%]	inhibition towards butyrylcholinesterase (BChE) (in words) [4]	also measured
COc1c2ccoc2cc2oc(=O)ccc12 [Bergapten]	56.99 ± 3.87 (≈ 264 µM)	31.00 ± 3.02	strong inhibition	Percentile of inhibition ± S.E.M against AChE [2]: 18.98 ± 2.98%; IC50 (hCA I): 7.29 µM; Ki (hCA I): 4.79 ± 0.57 µM; IC50 (hCA II): 8.25 µM; Ki (hCA II): 12.8 ± 1.92 µM
O=C(/C=C/c1ccc(O)c(O)c1)O[C@@H]1C[C@](O)(C(=O)O)C[C@@H](O)[C@H]1O [Chlorogenic acid, reference compound]	12.98 ± 4.89 (≈ 36.6 µM)	–	–	–
COc1cc2c(cc1OC)C(=O)C(CC1CCN(Cc3ccccc3)CC1)C2 (centres unmarked) [Donepezil, donepezil hydrochloride, reference compound]	–	90.33 ± 4.16	–	–
CC1(C)O[C@H]1COc1c2ccoc2cc2oc(=O)ccc12 [Oxypeucedanin]	91.27 ± 2.76 (≈ 319 µM)	36.89 ± 1.23	–	Percentile of inhibition ± S.E.M against AChE [2]: 19.36 ± 1.87%; IC50 (hCA I): 6.73 µM; Ki (hCA I): 5.33 ± 1.08 µM; IC50 (hCA II): 5.29 µM; Ki (hCA II): 8.85 ± 1.05 µM
CCCOC(=O)c1cc(O)c(O)c(O)c1 [Propyl gallate, reference compound]	3.44 ± 2.05 (≈ 16.2 µM)	–	–	–
C[C@@H]1O[C@@H](OC[C@H]2O[C@@H](Oc3c(-c4ccc(O)c(O)c4)oc4cc(O)cc(O)c4c3=O)[C@H](O)[C@@H](O)[C@@H]2O)[C@H](O)[C@H](O)[C@H]1O [Rutin, reference compound]	9.65 ± 3.09 (≈ 15.8 µM)	–	–	–
CC[C@H](/C=C/[C@@H](C)[C@H]1CC[C@H]2[C@@H]3CC=C4C[C@@H](O)CC[C@]4(C)[C@H]3CC[C@]12C)C(C)C [Stigmasterol]	–	13.34 ± 2.99	–	BChE inhibition activity (in words) [3]: did not show considerable inhibition towards BChE
CC(C)=CCOc1c2occc2cc2ccc(=O)oc12 [imperatorin]	–	–	strong inhibition	–
CC(C)=CCOc1c2ccoc2cc2oc(=O)ccc12 [isoimperatorin]	–	–	strong inhibition	–
COc1c2occc2cc2ccc(=O)oc12 [xanthotoxin]	–	–	strong inhibition	–
CC[C@H](CC[C@@H](C)[C@H]1CC[C@H]2[C@@H]3CC=C4C[C@@H](O)CC[C@]4(C)[C@H]3CC[C@]12C)C(C)C [β-Sitosterol]	492.30 ± 2.03 (≈ 1190 µM)	9.93 ± 1.78	–	BChE inhibition activity (in words) [3]: did not show considerable inhibition towards BChE
Oxypeucedanin hydrate monoacetate	–	–	–	cancer cell migration (in words) (Caco-2 cells): inhibition of cancer cell migration; expression of pPI3K and pAkt (in words) (pPI3K and pAkt): significant down-regulation
